Measured values published in patent US20250066370A1, “BICYCLIC TRIAZINE DERIVATIVES FOR THE TREATMENT OF CANCER” (DEUTSCHES KREBSFORSCHUNGSZENTRUM, priority 2022, published 2025).

What was measured:
CDK9/CyclinT1 = CDK9/CyclinT1 (Homo sapiens (Human), UniProt P50750); experiment: CDK9/CycT1 high ATP kinase assay (TR-FRET); type: biochemical; settings: 2 mM ATP (high ATP); median; read-out: CDK9/CyclinT1, 2 mM ATP (high ATP), IC50 - [mol/l] (median)
Experimental: CDK9/CycT1-inhibitory activity of compounds of the present invention at a high ATP concentration after preincubation of enzyme and test compounds was quantified employing the CDK9/CycT1 TR-FRET assay as described in the following paragraphs.
Recombinant full-length His-tagged human CDK9 and CycT1, expressed in insect cells and purified by Ni-NTA affinity chromatography, were purchased from Life Technologies (Cat. No PV4131). As substrate for the kinase reaction biotinylated peptide biotin-Ttds-YISPLKSPYKISEG (C-terminus in amide form) was used which can be purchased e.g. form the company JERINI peptide technologies (Berlin, Germany).
For the assay 50 nanoL of a 100 fold concentrated solution of the test compound in DMSO was pipetted into either a black low volume 384 well microtiter plate or a black 1536 well microtiter plate (both Greiner Bio-One, Frickenhausen, Germany), 2 microL of a solution of CDK9/CycT1 in aqueous assay buffer [50 millimol/L Tris/HCl PH 8.0, 10 millimol/L MgCl2, 1.0 millimol/L dithiothreitol, 0.1 millimol/L sodium ortho-vanadate, 0.01% (v/v) Nonidet-P40 (Sigma)] were added and the mixture was incubated for 15 min at 22° C. to allow pre-binding of the test compounds to the enzyme before the start of the kinase reaction. Then the kinase reaction was started by the addition of 3 microL of a solution of adenosine-tri-phosphate (ATP, 3.3 millimol/L=>final conc. in the 5 microL assay volume is 2 millimol/L) and substrate (1.25 micromol/L=>final conc. in the 5 microL assay volume is 0.75 micromol/L) in assay buffer and the resulting mixture was incubated for a reaction time of 25 min at 22° C. The concentration of CDK9/CycT1 was adjusted depending of the activity of the enzyme lot and was chosen appropriate to have the assay in the linear range, typical concentrations were in the range of 0.5 microg/ml. The reaction was stopped by the addition of 3 microL of a solution of TR-FRET detection reagents (0.33 micromol/L streptavidine-XL665 [Cisbio Bioassays, Codolet, France] and 1.67 nanomol/L anti-RB (pSer807/pSer811)-antibody from BD Pharmingen [#558389] and 2 nanomol/L LANCE EU-W1024 labeled anti-mouse IgG antibody [Perkin-Elmer, product no. AD0077]) in an aqueous EDTA-solution (167 millimol/L EDTA, 0.2% (w/v) bovine serum albumin in 100 millimol/L HEPES pH 7.5).
The resulting mixture was incubated 1 h at 22° C. to allow the formation of complex between the phosphorylated biotinylated peptide and the detection reagents. Subsequently the amount of phosphorylated substrate was evaluated by measurement of the resonance energy transfer from the Eu-chelate to the streptavidine-XL. Therefore, the fluorescence emissions at 620 nm and 665 nm after excitation at 350 nm was measured in a TR-FRET reader, e.g. a Pherastar (BMG Labtechnologies, Offenburg, Germany) or a Viewlux (Perkin-Elmer). The ratio of the emissions at 665 nm and at […] was taken as the measure for the amount of phosphorylated substrate. The data were normalised (enzyme reaction without inhibitor=0% inhibition, all other assay components but no enzyme=100% inhibition).

[1] = system: MDA-MB-231, human breast cancer cells; experiment: Proliferation assay MDA-MB-231 (crystal violet); type: cell-based; settings: 96 h, MDA-MB-231 parental cells, 4 days, median, read-out: Prolif-MDA MB-231, IC50 - [mol/l] (median)
Experimental: (§1) Human tumour cells were originally obtained from the American Type Culture Collection (ATCC), or from the Deutsche Sammlung von Mikroorganismen und Zellkulturen (DSMZ, German Collection of Microorganisms and Cell Cultures). Cultivated tumour cells (CAL-120, human breast adenocarcinoma cells, DSMZ ACC-459; MDA-MB-231, human breast cancer cells, ATCC HTB-26) were plated at a density of 4,000 cells/well in a 96-well multitier plate in 200 microL of their respective growth medium supplemented 10% fetal calf serum. After 24 hours, the cells of one plate (zero-point plate) were stained with crystal violet (see below), while the medium of the other plates was supplemented with the test substances in various concentrations (0 micromol/L, as well as in the range of 0.01-10 micromol/L; the final concentration of the solvent dimethyl sulfoxide was adjusted to 0.1%) using a Tecan HP D300 Digital Dispenser. The cells were incubated for 4 days in the presence of test substances. Cell proliferation was determined by staining the cells with crystal violet: the cells were fixed by adding 20 microL/measuring point of an 11% glutaric aldehyde solution for 15 minutes at room temperature. After three washing cycles of the fixed cells with water, the plates were dried at room temperature. The cells were stained by adding 100 microL/measuring point of a 0.1% crystal violet solution (pH 3.0). After three washing cycles of the stained cells with water, the plates were dried at room temperature. The dye was dissolved by adding 100 microL/measuring point of a 10% acetic acid solution. The extinction was determined by photometry at a wavelength of 595 nm. The change of cell number, in percent, was calculated by normalization of the measured values to the extinction values of the zero-point plate (=0%) and the extinction of the untreated (0 μM) cells (=100%). The IC50 values (inhibitory concentration at 50% of maximal effect) were determined by means of a 4 parameter fit.

[2] = system: CAL-120, human breast adenocarcinoma cells; experiment: Proliferation assay CAL-120 (crystal violet); type: cell-based; settings: 96 h, CAL-120 parental cells, 4 days, median, read-out: Prolif-CAL-120, IC50 - [mol/l] (median)
Experimental: as §1

CDK12 = CDK12 (Homo sapiens (Human), UniProt Q9NYV4); experiment: CDK12 nuclear protein level: immunofluorescence/high content analysis in CAL-120 cells; type: cell-based; settings: 24 h, nuclear CDK12 staining intensity, median, read-out: CDK12 degradation IF, DC50 - [mol/l] (median)
Experimental: In the context of the present invention, the term “DC50 CDK12” refers to the DC50 values obtained according to the assay described in this section (7) herein below, i.e. the DC50 values for the degradation of CDK12.
CAL-120 human breast cancer cells (DSMZ ACC 459) are seeded in 1536-well microtiter plates (800 cells per well) containing 50 nanoL of compounds in Dose-Response. Control wells received DMSO or Example 4. Plates are then incubated for 24 h at 37° C. in an humidified incubator and fixed with 4% PFA for 10 min. Then immunofluorescence (IF) against CDK12 (CellSignalling CDK12 Antibody #11973, rabbit, 1:100 dilution) is performed using standard IF protocols. Cells are then stained with Hoechst 33342 (Life Technologies, H-1399, 0.1 microg/ml) and imaged on an automated confocal microscopy system (e.g. Perkin Elmer Opera Phenix). Nuclear and cytoplasmic intensity as well as the nuclear/cytoplasmic intensity ratio is determined by automated image analysis using custom generated scripts (MetaXpress). Data is then transferred to Genedata Screener software, normalized to DMSO and control and DC50 values (degrading concentration to achieve 50% reduction of nuclear CDK12 staining intensity relative to controls) are reported.

Chain of CDK12 (Q9NYV4 whole entry): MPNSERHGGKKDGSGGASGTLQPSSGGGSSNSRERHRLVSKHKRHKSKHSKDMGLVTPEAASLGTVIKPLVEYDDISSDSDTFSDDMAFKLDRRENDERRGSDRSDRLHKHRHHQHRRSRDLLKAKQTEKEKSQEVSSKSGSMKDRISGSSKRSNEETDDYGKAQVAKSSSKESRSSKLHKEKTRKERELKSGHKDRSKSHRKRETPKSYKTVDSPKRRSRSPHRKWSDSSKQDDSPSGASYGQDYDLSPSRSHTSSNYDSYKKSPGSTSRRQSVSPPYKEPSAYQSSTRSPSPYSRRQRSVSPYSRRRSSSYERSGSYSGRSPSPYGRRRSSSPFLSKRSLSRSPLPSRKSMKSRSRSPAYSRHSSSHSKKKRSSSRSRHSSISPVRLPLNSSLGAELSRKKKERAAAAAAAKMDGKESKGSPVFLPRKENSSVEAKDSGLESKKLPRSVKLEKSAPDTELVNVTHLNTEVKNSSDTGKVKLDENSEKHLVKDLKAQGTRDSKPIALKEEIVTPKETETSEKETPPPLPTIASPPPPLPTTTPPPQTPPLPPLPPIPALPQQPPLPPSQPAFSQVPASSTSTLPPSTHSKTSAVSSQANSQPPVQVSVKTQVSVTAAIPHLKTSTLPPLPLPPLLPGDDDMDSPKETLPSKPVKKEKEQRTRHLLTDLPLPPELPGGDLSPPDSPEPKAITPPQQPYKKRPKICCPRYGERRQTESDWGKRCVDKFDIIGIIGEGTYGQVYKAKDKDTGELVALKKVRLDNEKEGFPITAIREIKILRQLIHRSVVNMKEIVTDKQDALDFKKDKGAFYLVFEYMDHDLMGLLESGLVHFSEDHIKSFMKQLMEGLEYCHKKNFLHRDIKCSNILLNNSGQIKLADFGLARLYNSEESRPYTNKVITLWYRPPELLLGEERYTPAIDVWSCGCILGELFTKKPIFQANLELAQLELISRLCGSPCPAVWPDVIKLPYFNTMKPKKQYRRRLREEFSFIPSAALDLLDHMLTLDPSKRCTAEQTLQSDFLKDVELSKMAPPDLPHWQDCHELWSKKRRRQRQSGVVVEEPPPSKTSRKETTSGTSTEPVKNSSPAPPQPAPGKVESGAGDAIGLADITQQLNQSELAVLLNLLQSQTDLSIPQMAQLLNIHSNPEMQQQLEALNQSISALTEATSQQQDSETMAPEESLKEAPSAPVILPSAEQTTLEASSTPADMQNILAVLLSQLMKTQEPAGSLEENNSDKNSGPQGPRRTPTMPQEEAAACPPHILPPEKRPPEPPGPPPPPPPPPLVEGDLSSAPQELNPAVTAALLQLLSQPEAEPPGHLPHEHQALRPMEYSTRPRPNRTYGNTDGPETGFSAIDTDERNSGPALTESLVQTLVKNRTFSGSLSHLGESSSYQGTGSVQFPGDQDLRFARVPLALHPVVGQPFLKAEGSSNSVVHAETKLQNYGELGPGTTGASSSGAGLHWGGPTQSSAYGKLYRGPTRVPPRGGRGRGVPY
Chain of CDK12 (O75909 whole entry partner): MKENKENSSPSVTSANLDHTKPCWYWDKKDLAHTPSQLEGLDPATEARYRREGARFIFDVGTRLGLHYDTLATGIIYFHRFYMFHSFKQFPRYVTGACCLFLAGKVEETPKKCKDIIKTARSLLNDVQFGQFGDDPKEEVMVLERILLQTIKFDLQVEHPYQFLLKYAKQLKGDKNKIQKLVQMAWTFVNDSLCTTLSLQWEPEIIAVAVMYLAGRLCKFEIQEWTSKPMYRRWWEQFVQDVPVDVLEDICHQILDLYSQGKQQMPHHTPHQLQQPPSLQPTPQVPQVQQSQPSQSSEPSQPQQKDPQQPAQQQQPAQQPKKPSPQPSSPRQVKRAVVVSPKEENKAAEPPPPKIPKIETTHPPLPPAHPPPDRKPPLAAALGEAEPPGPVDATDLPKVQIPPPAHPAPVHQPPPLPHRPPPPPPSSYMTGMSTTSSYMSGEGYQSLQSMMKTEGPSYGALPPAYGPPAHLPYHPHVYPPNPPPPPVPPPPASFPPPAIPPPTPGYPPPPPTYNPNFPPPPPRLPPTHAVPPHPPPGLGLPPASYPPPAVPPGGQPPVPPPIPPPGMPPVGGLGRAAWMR
Chain of CDK9/CyclinT1 (P50750 whole entry): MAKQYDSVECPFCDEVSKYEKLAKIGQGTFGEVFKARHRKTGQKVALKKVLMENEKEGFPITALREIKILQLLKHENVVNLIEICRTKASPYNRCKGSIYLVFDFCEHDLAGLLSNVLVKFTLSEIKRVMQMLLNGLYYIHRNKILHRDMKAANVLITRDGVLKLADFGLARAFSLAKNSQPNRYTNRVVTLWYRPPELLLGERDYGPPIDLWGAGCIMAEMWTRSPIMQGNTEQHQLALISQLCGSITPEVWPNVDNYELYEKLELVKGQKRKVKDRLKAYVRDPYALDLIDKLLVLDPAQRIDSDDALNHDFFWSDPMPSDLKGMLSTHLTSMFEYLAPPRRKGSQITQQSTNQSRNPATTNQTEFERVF
Chain of CDK9/CyclinT1 (O60563 whole entry partner): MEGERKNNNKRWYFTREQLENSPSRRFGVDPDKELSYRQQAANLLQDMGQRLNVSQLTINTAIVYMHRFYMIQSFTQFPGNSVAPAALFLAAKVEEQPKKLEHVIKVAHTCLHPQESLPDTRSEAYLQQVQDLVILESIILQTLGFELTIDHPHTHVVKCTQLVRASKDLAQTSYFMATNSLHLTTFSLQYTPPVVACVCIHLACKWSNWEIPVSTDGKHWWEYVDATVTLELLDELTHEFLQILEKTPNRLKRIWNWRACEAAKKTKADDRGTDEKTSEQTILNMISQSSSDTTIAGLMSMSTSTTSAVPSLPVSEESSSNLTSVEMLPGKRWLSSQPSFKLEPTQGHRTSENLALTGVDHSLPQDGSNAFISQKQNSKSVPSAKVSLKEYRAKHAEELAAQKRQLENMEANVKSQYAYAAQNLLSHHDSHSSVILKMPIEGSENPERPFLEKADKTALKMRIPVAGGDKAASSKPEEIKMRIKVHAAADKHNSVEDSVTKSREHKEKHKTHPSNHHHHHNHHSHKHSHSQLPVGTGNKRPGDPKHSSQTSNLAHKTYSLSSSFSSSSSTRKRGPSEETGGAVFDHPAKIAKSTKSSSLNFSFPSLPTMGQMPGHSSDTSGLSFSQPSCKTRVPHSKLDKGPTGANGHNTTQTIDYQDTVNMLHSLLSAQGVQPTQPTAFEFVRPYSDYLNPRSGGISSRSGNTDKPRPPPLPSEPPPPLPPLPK

| SMILES | IC50 (CDK9/CyclinT1) [nM] | DC50 (CDK12) [nM] | IC50 [1] [nM] | IC50 [2] [nM] |
| --- | --- | --- | --- | --- |
| FC(F)(F)c1ccc(-c2nnc(CNc3nc(N4CCOCC4)nn4c(C(F)(F)F)cnc34)[nH]2)cc1 [Example 11, 2-(morpholin-4-yl)-7-(trifluoromethyl)-N-({5-[4-(trifluoromethyl)phenyl]-4H-1,2,4-triazol-3-yl}methyl)imidazo[2,1-f][1,2,4]triazin-4-amine] | > 20000 | 920 | 434 | 419 |
| FC(F)(F)c1ccc(-c2cnc(CNc3nc(N4CCOCC4)nn4c(C(F)(F)F)cnc34)[nH]2)cc1 [Example 7, 2-(morpholin-4-yl)-7-(trifluoromethyl)-N-({5-[4-(trifluoromethyl)phenyl]-1H-imidazol-2-yl}methyl)imidazo[2,1-f][1,2,4]triazin-4-amine] | > 20000 | 671 | 90.5 | 103 |
| FC(F)(F)c1ccc(-c2cnc(CNc3nc(N4CCOCC4)nc4c(Br)cnn34)[nH]2)cc1 [Example 3, 8-bromo-2-(morpholin-4-yl)-N-({5-[4-(trifluoromethyl)phenyl]-1H-imidazol-2-yl}methyl)pyrazolo[1,5-a][1,3,5]triazin-4-amine] | 15400 | > 2880 | – | 173 |
| FC(F)(F)Oc1ccc(-c2cnc(CNc3nc(N4CCOCC4)nn4c(C(F)(F)F)cnc34)[nH]2)cc1 [Example 8, 2-(morpholin-4-yl)-N-({5-[4-(trifluoromethoxy)phenyl]-1H-imidazol-2-yl}methyl)-7-(trifluoromethyl)imidazo[2,1-f][1,2,4]triazin-4-amine] | > 20000 | 893 | 114 | 90.7 |
| FC(F)(F)c1ccc(-c2nnc(CNc3nc(N4CCOCC4)nc4c(C(F)(F)F)cnn34)[nH]2)cc1 [Example 6, 2-(morpholin-4-yl)-8-(trifluoromethyl)-N-({5-[4-(trifluoromethyl)phenyl]-4H-1,2,4-triazol-3-yl}methyl)pyrazolo[1,5-a][1,3,5]triazin-4-amine] | > 20000 | 1000 | 777 | 224 |
| FC(F)(F)Oc1ccc(-c2nnc(CNc3nc(N4CCOCC4)nc4c(Br)cnn34)[nH]2)cc1 [Example 2, 8-bromo-2-(morpholin-4-yl)-N-({5-[4-(trifluoromethoxy)phenyl]-4H-1,2,4-triazol-3-yl}methyl)pyrazolo[1,5-a][1,3,5]triazin-4-amine] | 6350 | > 2790 | – | 370 |
| FC(F)(F)c1ccc(-c2cnc(CNc3nc(N4CCOCC4)nn4c(C(F)(F)F)cnc34)[nH]2)cn1 [Example 12, 2-(morpholin-4-yl)-7-(trifluoromethyl)-N-({5-[6-(trifluoromethyl)pyridin-3-yl]-1H-imidazol-2-yl}methyl)imidazo[2,1-f][1,2,4]triazin-4-amine] | > 20000 | > 1000 | 22.5 | 14.8 |
| FC(F)(F)c1ccc(-c2nnc(CNc3nc(N4CCOCC4)nc4c(Br)cnn34)[nH]2)cc1 [Example 1, 8-bromo-2-(morpholin-4-yl)-N-({5-[4-(trifluoromethyl)phenyl]-4H-1,2,4-triazol-3-yl}methyl)pyrazolo[1,5-a][1,3,5]triazin-4-amine] | 4580 | 2380 | – | 580 |

The next lines start with results.

| IC50 (CDK9/CyclinT1) [nM] | DC50 (CDK12) [nM] | SMILES | IC50 [1] [nM] | IC50 [2] [nM] |
| --- | --- | --- | --- | --- |
| – | > 1000 | COc1ccc(-c2nnc(CNc3nc(N4CCOCC4)nn4c(C(F)(F)F)cnc34)[nH]2)cn1 [Example 18, N-{[5-(6-methoxypyridin-3-yl)-4H-1,2,4-triazol-3-yl]methyl}-2-(morpholin-4-yl)-7-(trifluoromethyl)imidazo[2,1-f][1,2,4]triazin-4-amine] | 72.1 | 104 |
| 3050 | > 1000 | COc1ccc(-c2cnc(CNc3nc(N4CCOCC4)nc4c(C(F)(F)F)cnn34)[nH]2)cn1 [Example 21, N-{[5-(6-methoxypyridin-3-yl)-1H-imidazol-2-yl]methyl}-2-(morpholin-4-yl)-8-(trifluoromethyl)pyrazolo[1,5-a][1,3,5]triazin-4-amine] | 98.3 | 99 |
| – | > 1000 | FC(F)(F)c1ccc(-c2cnc(CNc3nc(N4CCOCC4)nc4c(C(F)(F)F)cnn34)[nH]2)cn1 [Example 24, 2-(morpholin-4-yl)-8-(trifluoromethyl)-N-({5-[6-(trifluoromethyl)pyridin-3-yl]-1H-imidazol-2-yl}methyl)pyrazolo[1,5-a][1,3,5]triazin-4-amine] | 21.7 | 30.2 |
| – | > 1000 | COc1ccc(-c2nnc(CNc3nc(N4CCOCC4)nc4c(C(F)(F)F)cnn34)[nH]2)cn1 [Example 15, N-{[5-(6-methoxypyridin-3-yl)-4H-1,2,4-triazol-3-yl]methyl}-2-(morpholin-4-yl)-8-(trifluoromethyl)pyrazolo[1,5-a][1,3,5]triazin-4-amine] | 259 | 355 |
| 506 | – | FC(F)(F)Oc1ccc(-c2nnc(CNc3nc(N4CCOCC4)nn4c(C(F)(F)F)cnc34)[nH]2)cn1 [Example 19, 2-(morpholin-4-yl)-N-({5-[6-(trifluoromethoxy)pyridin-3-yl]-4H-1,2,4-triazol-3-yl}methyl)-7-(trifluoromethyl)imidazo[2,1-f][1,2,4]triazin-4-amine] | 37.5 | 63.2 |
